Laboratory results taken from patent US11013780B2, “Methods of treating female infertility” (Myovant Sciences GmbH, priority 2016, dated 2021).
Read-outs that look alike come from different tables or passages of the source. Where a SMILES comes first, the peptide text is derived from it. [ ]: non-standard residue; d: D form. Arg(Me) = CNC(=N)NCCC[C@H](N)C(=O)O; Hyp = O=C(O)[C@@H]1C[C@@H](O)CN1; azaGly = NNC(=O)O

How the values were obtained:
[1] = system: serum LH and FSH; assay: Single dose pharmacodynamics (LH, FSH), Japanese men; assay type: in vivo, human; conditions: single dose 0.001 to 0.5 mg
Experimental: In the phase 1 clinical study of API-MA, subjects enrolled in the first seven cohorts received single SC bolus doses of 0.001, 0.004, 0.01, 0.04, 0.1, 0.25 or 0.5 mg of API-MA or placebo. Subjects enrolled in the eighth and ninth cohorts received single SC infusion doses of 0.25 or 0.5 mg of API-MA or placebo. The pharmacodynamics of the following hormones were assessed: LH, FSH, dihydroepiandrosterone sulfate (DHEA-S), growth hormone (GH), prolactin (PRL), thyroid-stimulating hormone (TSH), and adrenocorticotropic hormone (ACTH). The pharmacodynamic analysis set consisted of 37 subjects (bolus cohorts: 29; infusion cohorts: 8). […] In addition, blood specimens were collected for the measurement of LH and FSH on the day prior to dosing with API-MA. The time courses of mean serum LH concentrations following a single SC bolus of API-MA at doses ranging from 0.001 mg to 0.5 mg are shown in FIG. 6. The LH concentrations peaked between 12 and 24 hours and generally returned to baseline by 72 hours postdose. The magnitudes and durations of the LH concentration increases were similar across the dose range, 0.001 to 0.5 mg. The LH time courses were similar following a single 2-hour SC infusion of API-MA (data not shown).

[2] = Single dose PK, phase 1, healthy European men; assay type: in vivo, human; conditions: for Tmax / half-life / CL/F / AUC(0-inf) / AUC(0-t) / Cmax / Vd/F / CL renal / dose excreted: male, human; for Tmax / half-life / CL/F / AUC(0-inf) / AUC(0-t) / Cmax / Vd/F: plasma; for Vd/F: read-out: Vz/F; for CL renal: urine and plasma, read-out: CLr (renal clearance) (converted); for dose excreted: urine
Experimental: The study was conducted in France.
Eighty-two healthy European male subjects aged 50 to 76 years were enrolled into nine cohorts. 81/82 subjects (98.8%) were white and 1/82 subject (1.2%) was black/African American. Subjects enrolled in the first six cohorts received 0.001, 0.003, 0.01, 0.03, 0.1, or 0.3 mg of API-MA or placebo by single SC bolus. In the 0.3 mg cohort, 6 subjects received API-MA and two received placebo. In the remaining cohorts, 7 subjects received API-MA and three received placebo. Subjects enrolled in the seventh, eighth, and ninth cohorts received 1, 3, or 6 mg of API-MA or placebo by single 2-hour SC infusion. In these cohorts, 6 subjects received API-MA and two received placebo.
To measure urinary excretion of API-MA, urine specimens were collected at the following nominal times: from 12 hours prior to dosing until dosing and 0 to 6, 6 to 12, 12 to 24, 24 to 48 and 48 to 72 hours postdose.
To measure urinary excretion of API-MA, urine specimens were collected at the following nominal times: from 12 hours prior to dosing until dosing and 0 to 6, 6 to 12, 12 to 24, 24 to 48, and 48 to 72 hours after the start of the infusion.

[3] = single SC 0.001 mg, geometric mean
[4] = single SC 0.003 mg, geometric mean
[5] = single SC 0.01 mg, geometric mean
[6] = single SC 0.03 mg, geometric mean
[7] = single SC 0.1 mg, geometric mean
[8] = single SC 0.3 mg, geometric mean
[9] = subcutaneous, 2-hour INF 1 mg, geometric mean
[10] = subcutaneous, 2-hour INF 3 mg, geometric mean
[11] = subcutaneous, 2-hour INF 6 mg, geometric mean
[12] = single SC 0.001 mg, only 1 subject above LLOQ

## CC(=O)O.CNC(=N)NCCC[C@H](NC(=O)[C@H](CC(C)C)NC(=O)NNC(=O)[C@H](Cc1ccccc1)NC(=O)[C@@H](NC(=O)[C@H](CC(N)=O)NC(=O)[C@@H]1C[C@@H](O)CN1C(=O)[C@@H](Cc1ccc(O)cc1)NC(C)=O)[C@@H](C)O)C(=O)N[C@@H](Cc1c[nH]c2ccccc12)C(N)=O [API-MA, 2-(N-Acetyl-D-tyrosyl-trans-4-hydroxy-L-prolyl-Lasparaginyl-L-threonyl-L-phenylalanyl)-hydrazinocarbonyl-L-leucyl-Nω-methyl-L-arginyl-L-tryptophanamide monoacetate] (Ac-[dY][Hyp]NTF[azaGly]L[Arg(Me)]W-NH2)
[1]
  Time of FSH return to baseline / predose level: ≤ 72 h
  Time of LH return to baseline: ≤ 72 h
[2]; 2-hour INF 1 mg, geometric mean (% CV)
  Ae(0-t) (urine): 29971.789 (27.97) ng
[2]; 2-hour INF 3 mg, geometric mean (% CV)
  Ae(0-t) (urine): 118170.544 (41.46) ng
[2]; 2-hour INF 6 mg, geometric mean (% CV)
  Ae(0-t) (urine): 322822.342 (10.34) ng
[2]; SC bolus, read-out: Median Tmax, range over cohorts
  Tmax: 30 to 45 min
[2]; sc, 0.001 mg, single SC 0.001 mg, read-out: T½ (median) (converted)
  half-life: 108 min
[2]; sc, 0.003 mg, single SC 0.003 mg, read-out: T½ (median) (converted)
  half-life: 85.5 min
[2]; sc, 0.01 mg, single SC 0.01 mg, read-out: T½ (median) (converted)
  half-life: 130 min
[2]; sc, 0.03 mg, single SC 0.03 mg, read-out: T½ (median) (converted)
  half-life: 157 min
[2]; sc, 0.1 mg, single SC 0.1 mg, read-out: T½ (median) (converted)
  half-life: 185 min
[2]; sc, 0.3 mg, single SC 0.3 mg, read-out: T½ (median) (converted)
  half-life: 207 min
[2]; sc, 2-hour INF 1 mg, geometric mean
  CL/F: 380 mL/min
[2]; sc, 2-hour INF 3 mg, geometric mean
  CL/F: 353 mL/min
[2]; sc, 2-hour INF 6 mg, geometric mean
  CL/F: 315 mL/min
[2]; [3]
  AUC(0-inf): 0.0475 ng·h/mL
  AUC(0-t): 0.0267 ng·h/mL
  CL/F: 351 mL/min
  Cmax: 0.0133 ng/mL
  Vd/F: 63.9 L
[2]; single SC 0.001 mg, read-out: Tmax (median)
  Tmax: 30 min
[2]; [4]
  AUC(0-inf): 0.122 ng·h/mL
  AUC(0-t): 0.101 ng·h/mL
  CL/F: 409 mL/min
  Cmax: 0.0424 ng/mL
  Vd/F: 55.9 L
  CL renal: 19700 mL/min
  Ae(0-t) (urine): 119.177 ng
[2]; single SC 0.003 mg, read-out: Tmax (median)
  Tmax: 45 min
[2]; [5]
  AUC(0-inf): 0.371 ng·h/mL
  AUC(0-t): 0.345 ng·h/mL
  CL/F: 449 mL/min
  Cmax: 0.14 ng/mL
  Vd/F: 85.6 L
  CL renal: 17900 mL/min
  Ae(0-t) (urine): 370.540 ng
[2]; single SC 0.01 mg, read-out: Tmax (median)
  Tmax: 30 min
[2]; [6]
  AUC(0-inf): 1.11 ng·h/mL
  AUC(0-t): 1.07 ng·h/mL
  CL/F: 451 mL/min
  Cmax: 0.34 ng/mL
  Vd/F: 96 L
  CL renal: 15600 mL/min
  Ae(0-t) (urine): 1003.082 ng
[2]; single SC 0.03 mg, read-out: Tmax (median)
  Tmax: 30 min
[2]; [7]
  AUC(0-inf): 3.94 ng·h/mL
  AUC(0-t): 3.89 ng·h/mL
  CL/F: 423 mL/min
  Cmax: 1.38 ng/mL
  Vd/F: 108 L
  CL renal: 17500 mL/min
  Ae(0-t) (urine): 4077.298 ng
[2]; single SC 0.1 mg, read-out: Tmax (median)
  Tmax: 30 min
[2]; [8]
  AUC(0-inf): 13.2 ng·h/mL
  AUC(0-t): 13.2 ng·h/mL
  CL/F: 378 mL/min
  Cmax: 4.35 ng/mL
  Vd/F: 114 L
  CL renal: 14300 mL/min
  Ae(0-t) (urine): 11326.187 ng
[2]; single SC 0.3 mg, read-out: Tmax (median)
  Tmax: 37.5 min
[2]; subcutaneous, 1 mg, 2-hour INF 1 mg, read-out: T1/2 (median) (converted)
  half-life: 219 min
[2]; subcutaneous, 3 mg, 2-hour INF 3 mg, read-out: T1/2 (median) (converted)
  half-life: 315 min
[2]; subcutaneous, 6 mg, 2-hour INF 6 mg, read-out: T1/2 (median) (converted)
  half-life: 316 min
[2]; subcutaneous, 6 mg, 3 and 6 mg, read-out: Mean T1/2 at the highest doses (converted)
  half-life: ~312 min
[2]; [9]
  AUC(0-inf): 43.8 ng·h/mL
  AUC(0-t): 43.7 ng·h/mL
  Cmax: 13.1 ng/mL
  Vd/F: 120 L
[2]; subcutaneous, 2-hour INF 1 mg, read-out: Tmax (median)
  Tmax: 135 min
[2]; [10]
  AUC(0-inf): 141 ng·h/mL
  AUC(0-t): 141 ng·h/mL
  Cmax: 39.4 ng/mL
  Vd/F: 150 L
[2]; subcutaneous, 2-hour INF 3 mg, read-out: Tmax (median)
  Tmax: 135 min
[2]; [11]
  AUC(0-inf): 318 ng·h/mL
  AUC(0-t): 318 ng·h/mL
  Cmax: 82.5 ng/mL
  Vd/F: 141 L
[2]; subcutaneous, 2-hour INF 6 mg, read-out: Tmax (median)
  Tmax: 135 min
[2]; [12]
  CL renal: 17500 mL/min
  Ae(0-t) (urine): 34.658 ng
  Fe (urine): 3.466%
[2]; subcutaneous, 2-hour INF 1 mg, geometric mean (% CV)
  CL renal: 11400 mL/min
[2]; subcutaneous, 2-hour INF 3 mg, geometric mean (% CV)
  CL renal: 13900 mL/min
[2]; subcutaneous, 2-hour INF 6 mg, geometric mean (% CV)
  CL renal: 16900 mL/min
[2]; sc, 0.003 to 6 mg, bolus and infusion, read-out: Fe, range over cohorts
  dose excreted: 3.09 to 5.4%
[2]; sc, 2-hour INF 1 mg, geometric mean (% CV), read-out: Fe (urine)
  dose excreted: 3%
[2]; sc, 2-hour INF 3 mg, geometric mean (% CV), read-out: Fe (urine)
  dose excreted: 3.94%
[2]; sc, 2-hour INF 6 mg, geometric mean (% CV), read-out: Fe (urine)
  dose excreted: 5.38%
[2]; single SC 0.001 mg, only 1 subject above LLOQ, read-out: Fe (urine)
  dose excreted: 3.47%
[2]; single SC 0.003 mg, geometric mean, read-out: Fe (urine)
  dose excreted: 3.97%
[2]; single SC 0.01 mg, geometric mean, read-out: Fe (urine)
  dose excreted: 3.71%
[2]; single SC 0.03 mg, geometric mean, read-out: Fe (urine)
  dose excreted: 3.34%
[2]; single SC 0.1 mg, geometric mean, read-out: Fe (urine)
  dose excreted: 4.08%
[2]; single SC 0.3 mg, geometric mean, read-out: Fe (urine)
  dose excreted: 3.77%
